According to US6500846B1, “CDK inhibitors having flavone structure” (LG Chemical, Ltd., priority 1998, dated 2002):

Key:
CDK2/cyclin A = molecular target: T1, CDK2/cyclin A (Homo sapiens, UniProt P24941); experiment: Inhibitory activity against CDK2/cyclin A enzyme (GST-RB phosphorylation, P32-γ-ATP, scintillation counting); type: biochemical; conditions: 100 μM ATP, GST-RB substrate, 30° C. 30 minutes
T1 construct: made in house; host or cells: insect cells infected with baculoviruses
Protocol: (§1) Analysis of inhibitory activity against CDK2/cyclin A and CDK4/cyclin D1 enzyme.
(§2) The inhibitory activity against CDK2 is measured by referring to Kitagawa, M. et al., Oncogene 9:2549, 1994 and the inhibitory activity against CDK4 is measured by referring to Carlson, B. A. et al., Cancer Research 56:2473,1996.
(§3) As for CDK2, either the extract from the insect cell infected both with baculovirus which expresses CDK2 gene and baculovirus which expresses cyclin A gene or the active enzyme which had been purified therefrom was used. CDK4 enzyme was also obtained from the insect cell infected both with baculovirus expressing CDK4 gene and baculovirus expressing cyclin D1 gene. As the substrate for CDK2, either histon H1 or Rb protein was used. Rb protein was also used as the substrate for CDK4.
(§4) Specifically the activities of enzymes CDK2/cyclin A and CDK4/cyclin D1 were determined according to the following procedure.
(§5) 100 ng of enzyme was reacted in a total 1000 μl of 20 mM Tris (pH 8.0), 100 mM NaCl, 10 mM MgCl2 buffer solution containing 20 μg of GST-RB protein, 100 μM of ATP and 5 μCi of P32-γ-ATP at 30° C. for 30 minutes. Then, the enzyme reaction was stopped by adding EDTA to a concentration of 20 mM. Subsequently, 30 μl of 50% glutathione bead (purchased from Pharmacia) was added to attach GST-RB to the bead, which was washed three times with 20mM Tris (pH 8.0), 100 mM NaCl, 10 mM EDTA solution, and then scintillation counting was carried out. To analyze the inhibitory activity of the compound, the inhibitor having a proper concentration was added to the enzyme reaction solution, and then the enzyme activity was measured according to the above method.
(§6) The inhibitory activity of the compound of formula (1) according to the present invention against CDK2 and CDK4 is represented as IC50 value. The compounds which are not included in Examples(compound 63, 64, 65 and 66) were synthesized and purified according to the same procedure as examples, and then IC50 thereof was measured.

CDK4/cyclin D1 = molecular target: T2, CDK4/cyclin D1 (Homo sapiens, UniProt P11802); experiment: Inhibitory activity against CDK4/cyclin D1 enzyme (GST-RB phosphorylation, P32-γ-ATP, scintillation counting); type: biochemical; conditions: CDK4/cyclin D1, 100 μM ATP, GST-RB substrate, 30° C. 30 minutes
T2 construct: made in house; host or cells: insect cells infected with baculoviruses
T2 sequence (P11802 whole entry, species assumed): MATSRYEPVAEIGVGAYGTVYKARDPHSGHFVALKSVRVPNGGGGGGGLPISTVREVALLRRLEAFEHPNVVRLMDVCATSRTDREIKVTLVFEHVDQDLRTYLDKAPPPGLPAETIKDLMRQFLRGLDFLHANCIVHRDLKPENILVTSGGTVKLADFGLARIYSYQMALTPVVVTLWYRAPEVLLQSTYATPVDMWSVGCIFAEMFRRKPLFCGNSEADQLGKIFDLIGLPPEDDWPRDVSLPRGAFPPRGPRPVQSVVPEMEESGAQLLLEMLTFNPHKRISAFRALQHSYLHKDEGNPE
T2 sequence (P24385 whole entry partner, species assumed): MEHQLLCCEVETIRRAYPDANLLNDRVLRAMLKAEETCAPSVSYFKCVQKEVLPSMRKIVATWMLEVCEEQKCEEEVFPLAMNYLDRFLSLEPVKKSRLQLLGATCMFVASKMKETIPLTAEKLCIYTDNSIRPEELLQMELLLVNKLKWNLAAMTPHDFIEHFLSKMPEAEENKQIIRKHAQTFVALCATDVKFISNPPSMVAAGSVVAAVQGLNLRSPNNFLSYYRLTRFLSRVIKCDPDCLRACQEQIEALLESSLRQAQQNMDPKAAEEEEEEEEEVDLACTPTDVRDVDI
Protocol: as §1, §2, §3, §4, §5, §6

Structure (SMILES) | IC50 (CDK2/cyclin A) | IC50 (CDK4/cyclin D1)
COc1ccc2c(=O)c(O)c(-c3ccc(Cl)cc3)oc2c1 [Compound 8, 2-(4-chloro-phenyl)-3-hydroxy-7-methoxy-chromen-4-one] | > 100 µM | > 100 µM
O=c1c(O)c(-c2ccc(O)c(O)c2)oc2cc(O)cc(O)c12 [Compound 65, 2-(3,4-dihydroxyphenyl)-3,5,7-trihydroxy-4H-chromen-4-one] | < 50 µM | < 50 µM
O=C(Nc1ccc2oc(-c3ccc(O)c(O)c3)c(O)c(=O)c2c1)c1ccc(Cl)cc1 [Compound 53, 4-chloro-N-[2-(3,4-dihydroxyphenyl)-3-hydroxy-4-oxo-4H-chromen-6-yl]benzamide] | > 100 µM | 5.6 µM
O=c1c(O)c(-c2ccc(O)c(O)c2)oc2ccc(NS(=O)(=O)CCCCl)cc12 [Compound 41, 3-chloro-N-[2-(3,4-dihydroxyphenyl)-3-hydroxy-4-oxo-4H-chromen-6-yl]-1-propanesulfonamide] | 20 µM | 6.5 µM
O=c1c(O)c(-c2ccc(O)c(O)c2)oc2c(O)cccc12 [Compound 25, 2-(3,4-dihydroxyphenyl)-3,8-dihydroxy-4H-chromen-4-one] | < 10 µM | < 10 µM
COc1ccc2oc(-c3ccc4c(c3)OCO4)c(O)c(=O)c2c1 [Compound 5, 2-(benzo[1,3]dioxol-5-yl)-3-hydroxy-6-methoxy-chromen-4-one] | > 100 µM | > 100 µM
O=c1c(O)c(-c2ccc(O)c(O)c2)oc2ccc(NS(=O)(=O)CCc3cccc4ccccc34)cc12 [Compound 33, N-[2-(3,4-dihydroxyphenyl)-3-hydroxy-4-oxo-4H-chromen-6-yl]-2-(1-naphthyl)-1-ethanesulfonamide] | 63 µM | 5 µM
O=c1c(O)c(-c2ccc(O)c(O)c2)oc2c(F)cc(F)cc12 [Compound 21, 6,8-difluoro-2-(3,4-dihydroxyphenyl)-3-hydroxy-4H-chromen-4-one] | < 10 µM | < 10 µM
O=c1c(O)c(-c2ccc(O)c(O)c2)oc2ccccc12 [Compound 63, 2-(3,4-dihydroxyphenyl)-3-hydoxy-4H-chromen-4-one] | < 10 µM | < 10 µM
COc1ccc2c(=O)c(O)c(-c3ccc4c(c3)OCO4)oc2c1 [Compound 6, 2-(benzo[1,3]dioxol-5-yl)-3-hydroxy-7-methoxy-chromen-4-one] | > 100 µM | > 100 µM
COc1ccc(-c2oc3c(Cl)cc(Cl)cc3c(=O)c2O)cc1 [Compound 10, 6,8-dichloro-3-hydroxy-2-(4-methoxy-phenyl)-chromen-4-one] | > 100 µM | > 100 µM
O=c1c(O)c(-c2ccc(O)c(O)c2)oc2c(O)c(O)ccc12 [Compound 66, 2-(3,4-dihydroxyphenyl)-3,7,8-trihydroxy-4H-chromen-4-one] | < 10 µM | < 10 µM
CN1CCN(c2ccc(S(=O)(=O)Nc3ccc4oc(-c5ccc(O)c(O)c5)c(O)c(=O)c4c3)cc2N)CC1 [Compound 50, 3-amino-N-[2-(3,4-dihydroxyphenyl)-3-hydroxy-4-oxo-4H-chromen-6-yl]-4-(4-methyl-1-piperazinyl)benzenesulfonamide] | > 200 µM | 30 µM
COc1ccc2c(=O)c(O)c(-c3ccc(O)c(O)c3)oc2c1 [Compound 23, 2-(3,4-Dihydroxyphenyl)-3-hydroxy-7-methoxy-4H-chromen-4-one] | < 30 µM | < 30 µM
O=C(Nc1ccc2oc(-c3ccc(O)c(O)c3)c(O)c(=O)c2c1)Nc1ccc(Cl)cc1Cl [Compound 59, N-(2,4-dichlorophenyl)-N′-[2-(3,4-dihydroxyphenyl)-3-hydroxy-4-oxo-4H-chromen-6-yl]-urea] | 20 µM | 10 µM
O=c1cc(-c2ccccc2)oc2cc(O)ccc12 [Compound 3, 7-hydroxy-2-phenyl-chromen-4-one] | > 200 µM | > 200 µM
COc1ccc2c(=O)cc(-c3ccc(Cl)cc3)oc2c1 [Compound 1, 2-(4-chloro-phenyl)-7-methoxy-chromen-4-one] | > 200 µM | > 200 µM
COc1ccc2c(=O)c(O)c(-c3ccc(O)c(O)c3)oc2c1O [Compound 24, 2-(3,4-dihydroxyphenyl)-3,8-dihydroxy-7-methoxy-4H-chromen-4-one] | < 10 µM | < 10 µM
O=c1c(O)c(-c2ccc(O)c(O)c2)oc2cc(O)ccc12 [Compound 64, 2-(3,4-dihydroxyphenyl)-3,7-dihydroxy-4H-chromen-4-one] | < 5 µM | < 10 µM
Cc1cc2oc(-c3ccc(O)c(O)c3)c(O)c(=O)c2cc1C [Compound 26, 2-(3,4-dihydroxyphenyl)-6,7-dimethyl-3-hydroxy-4H-chromen-4-one] | < 10 µM | < 10 µM

Now from value to compound:

IC50 (CDK2/cyclin A) | IC50 (CDK4/cyclin D1) | Structure (SMILES)
31 µM | 1.6 µM | CN1CCN(c2ccc(S(=O)(=O)Nc3ccc4oc(-c5ccc(O)c(O)c5)c(O)c(=O)c4c3)cc2[N+](=O)[O-])CC1 [Compound 49, N-[2-(3,4-dihydroxyphenyl)-3-hydroxy-4-oxo-4H-chromen-6-yl]-4-(4-methyl-1-piperazinyl)-3-nitrobenzenesulfonamide]
< 5 µM | < 5 µM | O=c1c(O)c(-c2ccc(O)c(O)c2)oc2c(Br)cc(Br)cc12 [Compound 20, 6,8-Dibromo-2-(3,4-dihydroxyphenyl)-3-hydroxy-4H-chromen-4-one]
14 µM | 2.1 µM | O=c1c(O)c(-c2ccc(O)c(O)c2)oc2ccc(NS(=O)(=O)c3cccc(Br)c3)cc12 [Compound 30, 3-bromo-N-[2-(3,4-dihydroxyphenyl)-3-hydroxy-4-oxo-4H-chromen-6-yl]benzenesulfonamide]
4 µM | 2 µM | O=c1c(O)c(-c2ccc(O)c(O)c2)oc2ccc(NS(=O)(=O)c3ccc(-c4ccccc4)cc3)cc12 [Compound 35, N-[2-(3,4-Dihydroxyphenyl)-3-hydroxy-4-oxo-4H-chromen-6-yl]-[1,1′-biphenyl]-4-sulfonamide]
19 µM | 2.6 µM | O=c1c(O)c(-c2ccc(O)c(O)c2)oc2ccc(NS(=O)(=O)c3ccc(F)c(F)c3)cc12 [Compound 38, N-[2-(3,4-dihydroxyphenyl)-3-hydroxy-4-oxo-4H-chromen-6-yl]-3,4-difluorobenzenesulfonamide]
12 µM | 3.5 µM | O=c1c(O)c(-c2ccc(O)c(O)c2)oc2ccc(NS(=O)(=O)c3ccc(-c4ccon4)s3)cc12 [Compound 36, N-[2-(3,4-dihydroxyphenyl)-3-hydroxy-4-oxo-4H-chromen-6-yl]-5-(isooxazolyl)-2-thiophenesulfonamide]
4.1 µM | 2.3 µM | O=C(N1CCc2ccc(S(=O)(=O)Nc3ccc4oc(-c5ccc(O)c(O)c5)c(O)c(=O)c4c3)cc2C1)C(F)(F)F [Compound 44, N-[2-(3,4-dihydroxyphenyl)-3-hydroxy-4-oxo-4H-chromen-6-yl]-2-(2,2,2-trifluoroacetyl)-1,2,3,4-tetrahydro-7-isoquinolinesulfonamide]
35.5 µM | 4.2 µM | CN(C)c1cccc2c(S(=O)(=O)Nc3ccc4oc(-c5ccc(O)c(O)c5)c(O)c(=O)c4c3)cccc12 [Compound 32, N-[2-(3,4-dihydroxyphenyl)-3-hydroxy-4-oxo-4H-chromen-6-yl]-5-(dimethylamino)-1-naphthalenesulfonamide]
5 µM | 4.2 µM | O=C(Nc1ccccc1)Nc1ccc2oc(-c3ccc(O)c(O)c3)c(O)c(=O)c2c1 [Compound 56, N-[2-(3,4-dihydroxyphenyl)-3-hydroxy-4-oxo-4H-chromen-6-yl]-N′-phenylurea]
3 µM | 1 µM | O=c1c(O)c(-c2ccc(O)c(O)c2)oc2ccc(NS(=O)(=O)c3cc(Br)c(Br)s3)cc12 [Compound 34, 4,5-Dibromo-N-[2-(3,4-dihydroxyphenyl)-3-hydroxy-4-oxo-4H-chromen-6-yl]-2-thiophenesulfonamide]
4.2 µM | 4.2 µM | O=C(Nc1cccc(Br)c1)Nc1ccc2oc(-c3ccc(O)c(O)c3)c(O)c(=O)c2c1 [Compound 58, N-(3-bromophenyl)-N′-[2-(3,4-dihydroxyphenyl)-3-hydroxy-4-oxo-4H-chromen-6-yl]urea]
< 5 µM | < 5 µM | Nc1ccc2oc(-c3ccc(O)c(O)c3)c(O)c(=O)c2c1 [Compound 15, 6-amino-2-(3,4-dihydroxyphenyl)-3-hydroxy-4H-chromen-4-one]
 | 0.94 µM | O=c1c(O)c(-c2ccc(O)c(O)c2)oc2ccc(NS(=O)(=O)c3ccc(N4CCOCC4)c([N+](=O)[O-])c3)cc12 [Compound 48, N-[2-(3,4-dihydroxyphenyl)-3-hydroxy-4-oxo-4H-chromen-6-yl]-4-(4-morpholinyl)-3-nitrobenzenesulfonamide]
